Patent US12390441B2, “Immunomodulating o-het/aryl azalides” (Zoetis Services LLC, priority 2020, dated 2025)
Marks after values point to notes of the source that are not given here.

Key:
[1] = tested on: BRD pathogens, M. haemolytica and P. multocida; experiment: In-vitro MIC model, BRD pathogen screening panel; type: cell-based, Mannheimia haemolytica; Pasteurella multocida; conditions: at least one BRD strain
[2] = tested on: TNF-α; experiment: Whole blood assay, LPS stimulation, MSD cytokine detection; type: cell-based; conditions: fresh whole bovine blood
[3] = tested on: IL-1β; experiment: as above; type: cell-based, bovine; conditions: fresh whole bovine blood, LPS stimulation; drug concentration giving overstimulation (OS) of IL-1β
[4] = tested on: IL-6; experiment: as above; type: cell-based; conditions: fresh whole bovine blood

SMILES | MIC flag at the example number (Table A) [1] | IC50 [2] | IL-1ß OS of LPS [3] | IC50 [4] | further results
CC[C@H]1OC(=O)[C@H](C)[C@@H](O[C@H]2C[C@@](C)(OC)[C@@H](O)[C@H](C)O2)[C@H](C)[C@@H](O[C@@H]2O[C@H](C)C[C@H](N(C)C)[C@H]2Oc2ccccc2C#N)[C@](C)(O)C[C@@H](C)CN(C)[C@H](C)[C@@H](O)[C@]1(C)O [Example A-3] | A-3* (MIC ≤ 64 μg/mL for at least one BRD strain) | – | – | – | –
CC[C@H]1OC(=O)[C@H](C)[C@@H](O[C@H]2C[C@@](C)(OC)[C@@H](O)[C@H](C)O2)[C@H](C)[C@@H](O[C@@H]2O[C@H](C)C[C@H](N(C)C)[C@H]2Oc2ccc(Cl)nc2)[C@](C)(O)C[C@@H](C)CN(C)[C@H](C)[C@@H](O)[C@]1(C)O [Example A-5] | A-5* (MIC ≤ 64 μg/mL for at least one BRD strain) | – | – | – | –
CC[C@H]1OC(=O)[C@H](C)[C@@H](O[C@H]2C[C@@](C)(OC)[C@@H](O)[C@H](C)O2)[C@H](C)[C@@H](O[C@@H]2O[C@H](C)C[C@H](N(C)C)[C@H]2Oc2cnc(OC)nc2)[C@](C)(O)C[C@@H](C)CN(C)[C@H](C)[C@@H](O)[C@]1(C)O [Example A-7] | A-7* (MIC ≤ 64 μg/mL for at least one BRD strain) | – | – | – | –
CC[C@H]1OC(=O)[C@H](C)[C@@H](O[C@H]2C[C@@](C)(OC)[C@@H](O)[C@H](C)O2)[C@H](C)[C@@H](O[C@@H]2O[C@H](C)C[C@H](NC)[C@H]2Oc2ccc3ncccc3c2)[C@](C)(O)C[C@@H](C)CN(C)[C@H](C)[C@@H](O)[C@]1(C)O [Example A-8] | A-8* (MIC ≤ 64 μg/mL for at least one BRD strain) | – | – | – | –
CC[C@H]1OC(=O)[C@H](C)[C@@H](O[C@H]2C[C@@](C)(OC)[C@@H](O)[C@H](C)O2)[C@H](C)[C@@H](O[C@@H]2O[C@H](C)C[C@H](N(C)C)[C@H]2Oc2ccccc2Cl)[C@](C)(O)C[C@@H](C)CN(C)[C@H](C)[C@@H](O)[C@]1(C)O [Example A-10] | A-10* (MIC ≤ 64 μg/mL for at least one BRD strain) | – | – | – | –
CC[C@H]1OC(=O)[C@H](C)[C@@H](O[C@H]2C[C@@](C)(OC)[C@@H](O)[C@H](C)O2)[C@H](C)[C@@H](O[C@@H]2O[C@H](C)C[C@H](NC)[C@H]2Oc2cncc(C(F)(F)F)c2)[C@](C)(O)C[C@@H](C)CN(C)[C@H](C)[C@@H](O)[C@]1(C)O [Example A-13, (2R,3S,4R,5R,8R,10R,11R,12S,13S,14R)-2-ethyl-3,4,10-trihydroxy-13-(((2R,4R,5S,6S)-5-hydroxy-4-methoxy-4,6-dimethyltetrahydro-2H-pyran-2-yl)oxy)-3,5,6,8,10,12,14-heptamethyl-11-(((2S,3R,4S,6R)-6-methyl-4-(methylamino)-3-((5-(trifluoromethyl)pyridin-3-yl)oxy)tetrahydro-2H-pyran-2-yl)oxy)-1-oxa-6-azacyclopentadecan-15-one] | A-13* (MIC ≤ 64 μg/mL for at least one BRD strain) | – | – | – | –
CC[C@H]1OC(=O)[C@H](C)[C@@H](O[C@H]2C[C@@](C)(OC)[C@@H](O)[C@H](C)O2)[C@H](C)[C@@H](O[C@@H]2O[C@H](C)C[C@H](NC)[C@H]2Oc2cc(F)ccc2OC)[C@](C)(O)C[C@@H](C)CN(C)[C@H](C)[C@@H](O)[C@]1(C)O [Example A-14] | A-14* (MIC ≤ 64 μg/mL for at least one BRD strain) | – | – | – | –
CC[C@H]1OC(=O)[C@H](C)[C@@H](O[C@H]2C[C@@](C)(OC)[C@@H](O)[C@H](C)O2)[C@H](C)[C@@H](O[C@@H]2O[C@H](C)C[C@H](NC)[C@H]2Oc2cnc(OC)nc2)[C@](C)(O)C[C@@H](C)CN(C)[C@H](C)[C@@H](O)[C@]1(C)O [Example A-15] | A-15* (MIC ≤ 64 μg/mL for at least one BRD strain) | – | – | – | –
CCOc1ccc(O[C@H]2[C@H](O[C@@H]3[C@@H](C)[C@H](O[C@H]4C[C@@](C)(OC)[C@@H](O)[C@H](C)O4)[C@@H](C)C(=O)O[C@H](CC)[C@@](C)(O)[C@H](O)[C@@H](C)N(C)C[C@H](C)C[C@@]3(C)O)O[C@H](C)C[C@@H]2NC)cc1 [Example A-17] | A-17* (MIC ≤ 64 μg/mL for at least one BRD strain) | – | – | – | –
CC[C@H]1OC(=O)[C@H](C)[C@@H](O[C@H]2C[C@@](C)(OC)[C@@H](O)[C@H](C)O2)[C@H](C)[C@@H](O[C@@H]2O[C@H](C)C[C@H](N(C)C)[C@H]2Oc2cccc(OC)c2)[C@](C)(O)C[C@@H](C)CN(C)[C@H](C)[C@@H](O)[C@]1(C)O [Example A-20] | A-20* (MIC ≤ 64 μg/mL for at least one BRD strain) | – | – | – | –
CC[C@H]1OC(=O)[C@H](C)[C@@H](O[C@H]2C[C@@](C)(OC)[C@@H](O)[C@H](C)O2)[C@H](C)[C@@H](O[C@@H]2O[C@H](C)C[C@H](NC)[C@H]2Oc2ccc(F)c(S(C)(=O)=O)c2)[C@](C)(O)C[C@@H](C)CN(C)[C@H](C)[C@@H](O)[C@]1(C)O [Example A-22] | A-22* (MIC ≤ 64 μg/mL for at least one BRD strain) | – | – | – | –
CC[C@H]1OC(=O)[C@H](C)[C@@H](O[C@H]2C[C@@](C)(OC)[C@@H](O)[C@H](C)O2)[C@H](C)[C@@H](O[C@@H]2O[C@H](C)C[C@H](N(C)C)[C@H]2Oc2ccc(OC)nc2C)[C@](C)(O)C[C@@H](C)CN(C)[C@H](C)[C@@H](O)[C@]1(C)O [Example A-38] | A-38* (MIC ≤ 64 μg/mL for at least one BRD strain) | – | – | – | –
CC[C@H]1OC(=O)[C@H](C)[C@@H](O[C@H]2C[C@@](C)(OC)[C@@H](O)[C@H](C)O2)[C@H](C)[C@@H](O[C@@H]2O[C@H](C)C[C@H](NC)[C@H]2Oc2ccc(OC)nc2OC)[C@](C)(O)C[C@@H](C)CN(C)[C@H](C)[C@@H](O)[C@]1(C)O [Example A-42] | A-42* (MIC ≤ 64 μg/mL for at least one BRD strain) | – | – | – | –
CC[C@H]1OC(=O)[C@H](C)[C@@H](O[C@H]2C[C@@](C)(OC)[C@@H](O)[C@H](C)O2)[C@H](C)[C@@H](O[C@@H]2O[C@H](C)C[C@H](N(C)C)[C@H]2Oc2ccc(OC)nc2OC)[C@](C)(O)C[C@@H](C)CN(C)[C@H](C)[C@@H](O)[C@]1(C)O [Example A-43] | A-43* (MIC ≤ 64 μg/mL for at least one BRD strain) | – | – | – | –
CCCNC[C@]1(O)[C@H](C)O[C@@H](O[C@H]2[C@H](C)[C@@H](O[C@@H]3O[C@H](C)C[C@H](N(C)Cc4nccs4)[C@H]3Oc3ccccc3)[C@](C)(O)C[C@@H](C)CN[C@H](C)[C@@H](O)[C@](C)(O)[C@@H](CC)OC(=O)[C@@H]2C)C[C@@]1(C)OC [Example E-150] | – | 6 µM | 1 µM | 3 µM | –
CCCNC[C@]1(O)[C@H](C)O[C@@H](O[C@H]2[C@H](C)[C@@H](O[C@@H]3O[C@H](C)C[C@H](NC)[C@H]3Oc3ccc(OC)cc3)[C@](C)(O)C[C@@H](C)CN(C)[C@H](C)[C@@H](O)[C@](C)(O)[C@@H](CC)OC(=O)[C@@H]2C)C[C@@]1(C)OC [Example E-151] | – | 23 µM | 16 µM | 23 µM | –
CCCNC[C@]1(O)[C@H](C)O[C@@H](O[C@H]2[C@H](C)[C@@H](O[C@@H]3O[C@H](C)C[C@H](NC)[C@H]3Oc3ccccc3)[C@](C)(O)C[C@@H](C)CN(C)[C@H](C)[C@@H](O)[C@](C)(O)[C@@H](CC)OC(=O)[C@@H]2C)C[C@@]1(C)OC [Example E-152] | – | 23 µM | 16 µM | 21 µM | –
CCCNC[C@]1(O)[C@H](C)O[C@@H](O[C@H]2[C@H](C)[C@@H](O[C@@H]3O[C@H](C)C[C@H](NC)[C@H]3Oc3ccc(F)cc3)[C@](C)(O)C[C@@H](C)CN(C)[C@H](C)[C@@H](O)[C@](C)(O)[C@@H](CC)OC(=O)[C@@H]2C)C[C@@]1(C)OC [Example E-153] | – | 21 µM | 16 µM | 18 µM | –
CCCNC[C@]1(O)[C@H](C)O[C@@H](O[C@H]2[C@H](C)[C@@H](O[C@@H]3O[C@H](C)C[C@H](NC4CCCCC4)[C@H]3Oc3ccccc3)[C@](C)(O)C[C@@H](C)CN[C@H](C)[C@@H](O)[C@](C)(O)[C@@H](CC)OC(=O)[C@@H]2C)C[C@@]1(C)OC [Example E-154] | – | 5 µM | 1 µM | 4 µM | –
CCCNC[C@]1(O)[C@H](C)O[C@@H](O[C@H]2[C@H](C)[C@@H](O[C@@H]3O[C@H](C)C[C@H](NCC(C)C)[C@H]3Oc3ccccc3)[C@](C)(O)C[C@@H](C)CN[C@H](C)[C@@H](O)[C@](C)(O)[C@@H](CC)OC(=O)[C@@H]2C)C[C@@]1(C)OC [Example E-155] | – | – | 6 µM | – | IC50 ([2]; Bos taurus): 8 µM; IC50 ([4]; Bos taurus): 8 µM
CCCNC[C@]1(O)[C@H](C)O[C@@H](O[C@H]2[C@H](C)[C@@H](O[C@@H]3O[C@H](C)C[C@H](N(CC)CC)[C@H]3Oc3ccccc3)[C@](C)(O)C[C@@H](C)CN[C@H](C)[C@@H](O)[C@](C)(O)[C@@H](CC)OC(=O)[C@@H]2C)C[C@@]1(C)OC [Example E-156] | – | 8 µM | 16 µM | 10 µM | –
CCCNC[C@]1(O)[C@H](C)O[C@@H](O[C@H]2[C@H](C)[C@@H](O[C@@H]3O[C@H](C)C[C@H](NC)[C@H]3Oc3ccccc3)[C@](C)(O)C[C@@H](C)CN(CCC)[C@H](C)[C@@H](O)[C@](C)(O)[C@@H](CC)OC(=O)[C@@H]2C)C[C@@]1(C)OC [Example E-157] | – | – | 16 µM | – | IC50 ([2]; Bos taurus): 9 µM; IC50 ([4]; Bos taurus): 10 µM
CCCNC[C@]1(O)[C@H](C)O[C@@H](O[C@H]2[C@H](C)[C@@H](O[C@@H]3O[C@H](C)C[C@H](N(C)C(=O)N(C)c4ncccn4)[C@H]3Oc3ccccc3)[C@](C)(O)C[C@@H](C)CN[C@H](C)[C@@H](O)[C@](C)(O)[C@@H](CC)OC(=O)[C@@H]2C)C[C@@]1(C)OC [Example F-8] | – | 169 µM | 40 µM | 167 µM | –
CCCNC[C@]1(O)[C@H](C)O[C@@H](O[C@H]2[C@H](C)[C@@H](O[C@@H]3O[C@H](C)C[C@H](N(C)C(=O)N(C)C(C)C)[C@H]3Oc3ccccc3)[C@](C)(O)C[C@@H](C)CN[C@H](C)[C@@H](O)[C@](C)(O)[C@@H](CC)OC(=O)[C@@H]2C)C[C@@]1(C)OC [Example F-27] | – | 11 µM | 1 µM | 4 µM | –
